pEC50, pIC50: −log10 of the molar value. The source made the active and inactive calls.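 Rule for the calls: active = compounds giving half or more protection of infected cells from virus-caused growth loss, again on retest; inactive = the rest.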
System: CEM cells HIV-1 protection, formazan growth assay
Assay: NCI AIDS Antiviral Assay
Settings: for pIC50: measured here: growth of uninfected CEM cells
In short: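 Five concentrations of each compound were applied to infected and uninfected human CEM cells. Protection from HIV-1 was judged from growth measured with a soluble formazan assay.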

Compound | outcome | pEC50 | pIC50
Cc1c2ccnc(C(N)=O)c2c(C)c2c1[nH]c1ccccc12 | inactive |  | 
Cc1ccc(C)c(N2C(=O)C(=O)C(c3nc4ccccc4o3)C(=O)C2=O)c1 | inactive |  | 
COc1cc2oc(=O)cc(C)c2c(OC)c1OC |  | < 3.70 | < 3.70
CC(=O)C1CC=C(C)CC1 (centres undefined) |  | < 2.74 | 3.85
Cc1cc(-c2cc(C(C)(C)C)c(O)c(C(C)(C)C)c2)c(C)cc1-c1cc(C(C)(C)C)c(O)c(C(C)(C)C)c1 |  | < 4.00 | < 4.00
Cc1ccc(S(=O)(=O)C(CCC(=O)c2ccccc2)(CCC(=O)c2ccccc2)[N+](=O)[O-])cc1 |  | < 4.97 | < 4.97
CCOC(=O)CN(c1sc(C)c(CC)c1C(=O)OCC)S(=O)(=O)c1ccc(C)cc1 |  | < 3.70 | 4.99
COC(=O)[C@@H](NS(=O)(=O)CC12CCC(CC1)C2(C)C)C(C)(C)C |  | < 3.70 | < 3.70
COc1cccc(N2C(=O)[C@H]3[C@H]4CC(C(C)(C)C)CC[C@H]4c4c([nH]c5ccccc45)[C@H]3C2=O)c1 (some centres undefined) |  | 4.74 | 4.57
N#CC(C#N)=c1[nH]c2cccc3c2-c2c(cccc2c3=C(C#N)C#N)[nH]1 | inactive |  | 
COc1cc2c(cc1OC)C1(c3ccccc3)ON=C(c3ccccc3)N1CS2 (centres undefined) |  | < 5.03 | < 5.03
Cc1ccc([N+](=O)[O-])c2c(NCCNC(=O)Cn3ccnc3[N+](=O)[O-])ccnc12 |  | < 4.00 | 4.10
Oc1cc(O)c2c(c1)OC(c1ccc(O)c(O)c1)C(O)C2c1c(O)cc(O)c2c1OC(c1ccc(O)c(O)c1)C(O)C2 (centres undefined) |  | < 3.70 | 3.99
CN(C)CCCCC1CCN(CC(=O)N2c3ccccc3NC(=O)c3ccccc32)CC1 |  | < 3.52 | 3.81
COc1ccc(-c2cc(=O)c3c(O)c(O)c(OC)cc3o2)cc1O |  | < 3.26 | 3.62
Cc1[nH]c(=O)[nH]c(=O)c1N(CCF)CCCl |  | < 3.00 | 4.05
CCO/C=N/C1=C(C#N)C(c2ccc(Cl)cc2)c2c(-c3ccccc3)nn(-c3ccccc3)c2O1 (centres undefined) |  | < 4.70 | 4.77
N#CCCn1[nH]c(=O)c(Cl)c(Cl)c1=O |  | < 2.97 | 5.25
O=C1C(CN(Cc2ccccc2)Cc2ccccc2)CCCC1CN(Cc1ccccc1)Cc1ccccc1 (centres undefined) | inactive | < 4.58 | < 4.58
CCOC(=O)c1cc2c(nc1N)-c1ncccc1CC2 |  | < 4.71 | 6.66
COc1cc2c(c(OC)c1OC)C1CCCCC1SCC2=O (centres undefined) |  | < 3.81 | < 3.81

Compound | outcome | pEC50 | pIC50
CCc1ccc(/C(C#N)=C/c2cccc3ccccc23)cc1 |  | < 3.70 | 4.57
CCN1C(=O)c2ccccc2C1(O)c1ccc(Cl)cc1 (centres undefined) |  | < 3.70 | 3.82
OC(CC(O)(C(F)(F)Cl)C(F)(F)Cl)c1ccccc1 (centres undefined) |  | < 3.70 | 4.35
CC(=O)O[C@H]1CC[C@@]2(C)C(=C[C@H](c3ccc(O)cc3)[C@H]3[C@@H]4CC[C@H](OC(C)=O)[C@@]4(C)CC[C@@H]32)C1 |  | < 3.70 | 4.64
CC(=O)C1(N=Nc2ccc(S(=O)(=O)Nc3onc(C)c3C)cc2)CCOC1=O (centres undefined) |  | < 3.70 | < 3.70
COC1/C=C/O[C@@]2(C)Oc3c(C)c(O)c4c(O)c(cc(O)c4c3C2=O)NC(=O)/C(C)=C\C=C\[C@H](C)C(O)[C@@H](C)[C@@H](O)[C@@H](C)[C@H](OC(C)=O)[C@@H]1C (some centres undefined) |  | < 3.76 | 5.09
COC(=O)c1cc(C(=CCCCCN=[N+]=[N-])c2cc(Cl)c(OC)c(C(=O)OC)c2)cc(Cl)c1OC |  | 4.72 | < 3.70
CCCCCCCCCC(=O)OCC1OC(n2cc(F)c(=O)[nH]c2=O)C(N)C(OC(=O)CCCCCCCCC)C1O (centres undefined) |  | < 4.50 | < 4.50
CCN(CCC#N)C(=O)Nc1ccccc1 |  | < 3.70 | < 3.70
O=C(NS(=O)(=O)Nc1ccccc1)OC1CCCC1 |  | < 3.70 | < 3.70
CCCCCCCCCC(=O)NC(Cc1ccc(O)cc1)C(=O)NCCCNCCCCNCCCNC(=O)[C@@H](N)CCCN=C(N)N (some centres undefined) |  | < 4.16 | 4.23
CCNC(=S)NNC(=O)C12CC3CC(CC(C3)C1)C2 |  | < 3.70 | < 3.70
CCOC(=O)c1cnc2c(ccc3ncccc32)c1OCC |  | < 3.92 | 4.14
CC(C)(C)C1=CC(O)(c2c3ccccc3c(C3(O)C=C(C(C)(C)C)C(=O)C(C(C)(C)C)=C3)c3ccccc23)C=C(C(C)(C)C)C1=O |  | < 4.00 | < 4.00
Cc1ccc2nc3c(C)c(Cl)c(=O)cc-3sc2c1 |  | < 4.72 | 4.79
CN(C)c1ccc(C(=CC=C2C(=O)c3ccccc3C2=O)c2ccc(N(C)C)cc2)cc1 |  | < 4.95 | < 4.95
Cc1ccc(S(=O)CC(CF)OCn2cc(C)c(=O)[nH]c2=O)cc1 (centres undefined) | inactive |  | 
CN(C)C1C(=O)C(C(=O)NCNC(C=O)C(O)C(O)C(O)CO)=C(O)C2(O)C(=O)C3=C(O)c4c(O)cccc4C(C)(O)C3CC12 (centres undefined) |  | < 3.75 | 3.96
CCOC(=O)/C=C\[C@H]1OC(C)(C)O[C@H]1[C@H](O)[C@H]1COC(C)(C)O1 |  | < 4.70 | 4.95
COc1ccc(C(=O)C(C(=O)C(=O)Nc2nccs2)c2ccc(OC)cc2)cc1 (centres undefined) |  | < 4.20 | < 4.20
C=C1N(C=O)C(C)(C)N(O)C1(C)C |  | < 3.70 | < 3.70

Compound | outcome | pEC50 | pIC50
COC(=O)C1=C(C(=O)Nc2cccnc2Cl)N(c2ccc(OC)cc2[N+](=O)[O-])C(c2ccc(C)cc2)=CC1c1ccc(OC)cc1OC (centres undefined) |  | < 4.00 | 5.71
NNc1n[nH]c(=S)n1N |  | < 3.70 | < 3.70
C/C=C(/C1CC2c3[nH]c4ccccc4c3CCN2C(=O)C1C(=O)OCC)[Si](C)(C)C (centres undefined) |  | < 5.05 | < 5.05
CC(NNC(=S)N1CCN(c2ccccn2)CC1)c1cccc[n+]1[O-] (centres undefined) |  | < 4.17 | 6.71
Cc1ccc(/C=C/C(=O)c2cc(CN(C)C)c(O)c(CN(C)C)c2)cc1 |  | < 3.70 | 4.69
O=C(O)c1ccccc1-c1c2ccc(=O)c(Br)c-2oc2c(Br)c(O)ccc12 |  | < 3.70 | 4.43
COc1c(C(=O)/C(=N/Nc2cccc(Cl)c2)C(C)=O)c(O)c(OC)c2occc12 |  | < 3.70 | 4.07
C1CN(CCSSCCN2CCOCC2)CCO1 |  | < 3.70 | 3.78
CC1OC(OC2C(Oc3c(-c4ccc(O)c(O)c4O)oc4cc(O)ccc4c3=O)OC(CO)C(O)C2O)C(O)C(O)C1O (centres undefined) |  | < 3.70 | 4.66
CC1(C)C(=O)C2(OS(=O)(=O)C(F)(F)F)CCC1C2 (centres undefined) |  | < 3.70 | < 3.70
CCOC(=O)C[P+](c1cccc(F)c1)(c1cccc(F)c1)c1cccc(F)c1 |  | < 3.70 | 3.78
O=c1ccc(-c2ccc(-n3ccnc3)cc2)nn1CCO |  | < 3.70 | < 3.70
CC1(C)OC(=O)C(c2cccs2)C(=O)O1 |  | < 4.35 | < 4.35
OC(Nc1ccccn1)(C(F)(F)F)C(F)(F)F |  | < 3.70 | < 3.70
COc1cc2c(cc1OC)C(=O)/C(=C/c1ccc(Cl)cc1)CC2 |  | < 3.70 | < 3.70
Cc1nc(N2N=C(c3ccc(Cl)cc3)CCC2=O)sc1[N+](=O)[O-] |  | < 4.13 | 4.49
CC(OC1CC(=O)CC2C(=O)C=CC(=O)C12)c1ccccc1 (centres undefined) |  | < 3.22 | 5.48
O=c1c2ccccc2nc(/C=C(\O)c2ccccc2)n1-c1ccccc1Cl | inactive |  | 
Nc1ncc(C=O)c(NCC2(CO)CCC2)n1 |  | < 3.70 | 4.68
COC(=O)CCC1(CCC(=O)OC)CCCCCCC(CCC(=O)OC)(CCC(=O)OC)C(=O)C1=O |  | < 3.70 | < 3.70
C=C1CCCCCCCCCCC12SCCCS2 |  | < 3.70 | < 3.70

Compound | outcome | pEC50 | pIC50
COc1c(-c2cc(C)c(Cl)c(=O)[nH]2)c(O)c(OC)c2occc12 |  | < 3.70 | 3.96
CCOC(=O)C1([Se]c2ccccc2)CCCC1=O (centres undefined) |  | < 3.66 | 4.69
NCCCN(CCCN)CCN(CCN(CCCN)CCCN)CCN(CCCN)CCCN |  | < 3.70 | 4.24
O=C(NC(CO)Cc1ccc(Oc2cc(CC(CO)NC(=O)OCc3ccccc3)ccc2OC(=O)OCc2ccccc2)cc1)OCc1ccccc1 (centres undefined) |  | < 3.70 | 4.68
O=C1c2ccccc2OP(=O)(OCC(F)(F)F)OC1(C(F)(F)F)C(F)(F)F (centres undefined) |  | < 3.24 | 3.90
CCOC(=O)C1Sc2ccccc2N=C1C (centres undefined) |  | < 4.51 | < 4.51
COc1cc2ccc(C(=O)NCCCNC(=O)c3ccc4cc(OC)c(OC)cc4c3)cc2cc1OC |  | 3.90 | < 3.70
OCCOCn1nc(-c2ccccc2)nc1-c1cnccn1 |  | < 3.70 | < 3.70
Nc1ccc(CCN2CCN(c3cccc(C(F)(F)F)c3)CC2)cc1 | inactive |  | 
OC(c1ccccc1)c1c(-c2ccccc2)[nH]c(-c2ccccc2)c1C(O)c1ccccc1 (centres undefined) | inactive |  | 
CCCCCOCCCCCCCC(=O)O |  | < 3.70 | 4.05
CC(=O)Nc1ccc(-c2nnc(SCC(=O)Nc3ccccc3[N+](=O)[O-])o2)cc1 |  | < 4.62 | < 4.62
CS(=O)(=O)c1cc([N+](=O)[O-])c(C(N)=O)cc1N(CCCl)CCCl |  | < 3.70 | < 3.70
COc1ccc(C(=C(c2ccc(OC)cc2)c2ccc(OC)cc2)c2ccc(OC)cc2)cc1 |  | < 4.00 | 4.33
CCC1(Br)C(=O)NC(=O)NC1=O |  | 4.37 | 3.94
O=c1[nH]nc(Cc2ccccc2)n1/N=C/c1ccc([N+](=O)[O-])cc1 |  | < 3.70 | < 3.70
COc1cc(O)c(C(=O)/C=C/c2ccccc2)c(O)c1C1C=C(C)CCC1C(C)C (centres undefined) | inactive |  | 
COc1ccc2cc1Oc1ccc(cc1)CC1=NCCc3cc(OC)c(cc31)Oc1c(OC)c(OC)c(OC)c3c1[C@H](C2)N(C)CC3 | inactive |  | 
O=C(NCCCN1CCN(CCCNC(=O)c2cnc3ccccc3n2)CC1)c1cnc2ccccc2n1 |  | < 5.00 | < 5.00
Cc1ccc(NC(=O)SCCC(=O)O)cc1 | inactive |  | 
CC(C(=O)OCc1ccccc1)N(Cc1ccccc1)Cc1ccccc1 (centres undefined) |  | < 3.70 | < 3.70

Reference: PubChem BioAssay AID179 (DTP/NCI, 2004)
